Laboratory results taken from ChEMBL document CHEMBL1201862, “PubChem BioAssay data set” (2004).
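How tested: cells in 96-well plates exposed to compound for 48 hours at five concentrations. The concentration for 50% growth inhibition is given as GI50.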 Activity calls are given as the source filed them. Rule as the data show it: active = GI50 up to about 1.1 µM and inactive = higher.

Key:
Experiment in all cases: DTP human tumour cell line panel, 48 h
786-0 = tested on: 786-0
CAKI-1 = tested on: CAKI-1
CCRF-CEM = tested on: CCRF-CEM
EKVX = tested on: EKVX
HCT-116 = tested on: HCT-116
HCT-15 = tested on: HCT-15
HOP-62 = tested on: HOP-62
K562 = tested on: K562
LOX IMVI = tested on: LOX IMVI
M14 = tested on: M14
MCF7 = tested on: MCF7
MDA-MB-231 = tested on: MDA-MB-231
MDA-N = tested on: MDA-N
NCI/ADR-RES = tested on: NCI/ADR-RES
OVCAR-5 = tested on: OVCAR-5
PC-3 = tested on: PC-3
RXF 393 = tested on: RXF 393
SW-620 = tested on: SW-620
T47D = tested on: T47D
UACC-257 = tested on: UACC-257

SMILES | GI50 (786-0) | GI50 (CAKI-1) | GI50 (CCRF-CEM) | GI50 (EKVX) | GI50 (HCT-116) | GI50 (HCT-15) | GI50 (HOP-62) | GI50 (K562) | GI50 (LOX IMVI) | GI50 (M14) | GI50 (MCF7) | GI50 (MDA-MB-231) | GI50 (MDA-N) | GI50 (NCI/ADR-RES) | GI50 (OVCAR-5) | GI50 (PC-3) | GI50 (RXF 393) | GI50 (SW-620) | GI50 (T47D) | GI50 (UACC-257)
N#Cc1nnc2c3c(-c4ccc(Cl)cc4)c(C#N)c(O)nc3nn2c1N | 5.14 µM (inactive) | 5.6 µM (inactive) | 3.63 µM (inactive) | 12.9 µM (inactive) | 3.51 µM (inactive) | 8.83 µM | 4.79 µM (inactive) | 7.33 µM (inactive) | 2.85 µM (inactive) | 6.89 µM (inactive) | 2.06 µM (inactive) | 13.4 µM (inactive) | 3.61 µM (inactive) | 18.4 µM (inactive) | 24.8 µM (inactive) | 1.45 µM (inactive) | 3.98 µM (inactive) | 5.46 µM (inactive) | 1.17 µM (inactive) | 15.4 µM (inactive)
CC1OC(OC2C(O[C@H]3CC[C@@]4(C)C(=CC[C@H]5[C@@H]6C[C@@H]7O[C@]8(CC[C@@H](C)CO8)[C@@H](C)[C@@H]7[C@@]6(C)CC[C@@H]54)C3)OC(CO)C(OC3OC(CO)C(O)C3O)C2O)C(O)C(O)C1O (stereo not given in full) | 0.673 µM (active) | 0.867 µM (active) | 0.16 µM (active) | 0.885 µM (active) | 0.851 µM (active) | 0.895 µM | 0.897 µM (active) | 1.23 µM (inactive) | 0.521 µM (active) | 0.745 µM (active) | 0.774 µM (active) | 0.8 µM (active) | 0.752 µM (active) | 0.91 µM (active) | 0.8 µM (active) | 0.776 µM (active) | 0.865 µM (active) | 0.766 µM (active) | 1.12 µM (active) | 0.908 µM (active)
CC1=NN(c2ccccc2)C(=O)/C1=C1\SC(c2ccccc2)(c2ccccc2)c2ccccc21 | > 100 µM (inactive) | > 100 µM (inactive) | > 100 µM (inactive) | > 100 µM (inactive) | 50.4 µM (inactive) | > 100 µM | > 100 µM (inactive) | > 100 µM (inactive) | > 100 µM (inactive) | > 100 µM (inactive) | > 100 µM (inactive) | > 100 µM (inactive) | > 100 µM (inactive) | > 100 µM (inactive) | > 100 µM (inactive) | > 100 µM (inactive) | > 100 µM (inactive) | > 100 µM (inactive) | > 100 µM (inactive) | > 100 µM (inactive)
CC(C)Oc1c(N(Cc2ccccc2)c2ccccc2C2SCCCS2)c(=O)c1=O | 4.41 µM (inactive) | 5.79 µM (inactive) | 5.87 µM (inactive) | 4.51 µM (inactive) | 4.05 µM (inactive) | 3.71 µM | 3.96 µM (inactive) | 4.05 µM (inactive) | 5.56 µM (inactive) | 3.65 µM (inactive) | 4.16 µM (inactive) | 5.08 µM (inactive) | 3.1 µM (inactive) | 1.75 µM (inactive) | 5.97 µM (inactive) | 3.29 µM (inactive) | 4.88 µM (inactive) | 2.71 µM (inactive) | 5.14 µM (inactive) | 6.9 µM (inactive)
CCOc1cc2c(cc1O)C(=O)C[C@@H]1[C@@H]2CC[C@]2(C)[C@@H](O)CC[C@@H]12 | 0.177 µM (active) | 0.164 µM (active) | 0.162 µM (active) | 10.1 µM (inactive) | 0.144 µM (active) | 0.0556 µM | 0.213 µM (active) | 0.0362 µM (active) | 0.189 µM (active) | 0.385 µM (active) | 0.132 µM (active) | 0.525 µM (active) | 0.0212 µM (active) | 0.0955 µM (active) | 20.6 µM (inactive) | 2.71 µM (inactive) | 1.59 µM (inactive) | 0.126 µM (active) | 0.13 µM (active) | 1.21 µM (inactive)
